In US20250127913A1, “BIFUNCTIONAL FOLATE RECEPTOR BINDING COMPOUNDS” (LYCIA THERAPEUTICS, INC., priority 2021, published 2025):

Tests used:
FOLR2 = FOLR2 (Homo sapiens (Human), UniProt P14207); test: SPR binding kinetics of compounds to folate receptor (FOLR2 immobilized on CM5 chip)
Experimental: A Biacore 8K+ was used to measure the association and dissociation rates of example compounds to FOLR2 (Acro Biosystems, Cat: F02-H5223-100 μg). Briefly, FOLR2 was reconstituted according to the manufacture's instructions to 200 μg/mL. Both the active and reference surfaces of a Cytiva CM5 Series S Sensor Chip were activated with a 1:1 mixture of 400 mM EDC and 100 mM NHS for 420 s at 10 μL/min. 25 μg/mL FOLR2 diluted in Sodium Acetate pH 5.5 was injected on the active channel (Flow Cell 2) for 420 s at 10p/min. Both the reference and active surfaces were then capped with 1M ethanolamine, pH 8.5 for 420 s, achieving an immobilization level of ˜4200 RU. Example compounds were serially diluted 1:1 in running buffer (10 mM HEPES, 150 mM NaCl, 0.05% T20, pH 7.5, 2% DMSO) from 100 nM to 3.125 nM and flowed over the active and reference surfaces for 120 s, and then allowed to dissociate in running buffer for 600 s, at 30 uL/min. The FOLR2 immobilized active surface and the reference surface were regenerated with a 30 s pulse of Sodium Acetate pH 5.5 at 30 μL/min. Sensorgrams were solvent corrected, double-referenced, and the data fitted and analyzed in Biacore Insight Evaluation Software Version 3.0.11.15423.

TNFα trimer = TNFα trimer (Homo sapiens, UniProt P01375); test: SPR binding kinetics of compounds to TNFα trimer; conditions: class symbols
Sequence of TNFα trimer (P01375 77-233 limits assumed): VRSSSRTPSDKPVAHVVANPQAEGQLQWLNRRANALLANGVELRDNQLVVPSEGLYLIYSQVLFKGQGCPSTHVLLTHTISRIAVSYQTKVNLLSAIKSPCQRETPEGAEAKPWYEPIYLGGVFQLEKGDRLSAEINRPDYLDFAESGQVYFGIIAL

[1] = system: TNFα trimer complex to folate receptor (FOLR2); test: SPR co-engagement of compound-TNFα trimer complex to folate receptor; conditions: TNFα + 10 nM compound binding FOLR2
Experimental: The active (Flow cell 2) surfaces of a Cytiva CM5 Series S Sensor Chip functionalized with FOLR2 as described in Example 58. Example compounds were diluted to 10 nM with 50 and 100 nM TNFα single chain trimer or 150 nM and 300 nM TNFα native monomer in running buffer (10 mM HEPES, 150 mM NaCl, 0.05% T20, pH 7.5, 2% DMSO), allowed to incubate for 5 hours at 25° C. and then flowed over the active and reference surfaces for 110 s, and then allowed to dissociate in running buffer for 600 s, at a flow rate of 30 μL/min. The FOLR2 immobilized active surface and the reference surface were regenerated with a 30 s pulse of 4M MgCl2 at 30 μL/min then allowed to equilibrate 240 s. Sensorgrams were solvent corrected, double-referenced, and the data fitted and analyzed in Biacore Insight Evaluation Software Version 3.0.11.15423.

THP-1 cells = test: Compound mediated uptake of TNFα-pHrodo in THP-1 cells (flow cytometry); assay type: cell-based; design: key to Uptake in THP1 cells (run) 2 / Uptake in THP1 cells (run) 3 / Uptake in THP1 cells (run) 4: + = ΔMFI less than that of I-17; ++ = ΔMFI ≈ to that of I-17; +++ = ΔMFI greater than that of I-17; conditions: ΔMFI compared with I-17, uptake at 10 μM

Sequence of FOLR2 (P14207 17-255): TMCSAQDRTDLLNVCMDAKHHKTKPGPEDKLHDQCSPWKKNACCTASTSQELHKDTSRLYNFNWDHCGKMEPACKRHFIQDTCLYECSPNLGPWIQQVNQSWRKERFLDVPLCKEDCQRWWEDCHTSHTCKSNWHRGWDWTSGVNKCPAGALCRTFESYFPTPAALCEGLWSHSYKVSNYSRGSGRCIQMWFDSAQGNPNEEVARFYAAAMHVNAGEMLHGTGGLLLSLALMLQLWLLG

| Kd (FOLR2) [nM] | Kd (TNFα trimer) [nM] | co-engagement / complex formation observed on SPR [1] | SMILES | Uptake in THP1 cells (run) 3 (THP-1 cells) | Uptake in THP1 cells (run) 4 (THP-1 cells) | Uptake in THP1 cells (run) 2 (THP-1 cells) |
| --- | --- | --- | --- | --- | --- | --- |
| 0.3 | < 100 | complex formation observed | Cc1nc2cc(F)c(-c3cnc(OCCCCCn4cc(COCCNC(=O)CC[C@H](NC(=O)c5ccc(NCc6cnc7nc(N)nc(O)c7n6)cc5)C(=O)O)nn4)nc3)nc2c(N[C@H](C)c2cc(C#N)ccc2F)c1Cl [Compound I-15, N2-(4-(((2-amino-4-hydroxypteridin-6-yl)methyl)amino)benzoyl)-N5-(2-((1-(5-((5-(7-chloro-8-((I-1-(5-cyano-2-fluorophenyl)ethyl)amino)-3-fluoro-6-methyl-1,5-naphthyridin-2-yl)pyrimidin-2-yl)oxy)pentyl)-1H-1,2,3-triazol 4-yl)methoxy)ethyl)-L-glutamine] | +++ | ++ |  |
| 0.4 | < 100 | complex formation observed | Cc1nc2cc(F)c(-c3cnc(OCCCCCn4cc(COCCOCCOCCOCCOCCOCCNC(=O)CC[C@H](NC(=O)c5ccc(NCc6cnc7nc(N)nc(O)c7n6)cc5)C(=O)O)nn4)nc3)nc2c(N[C@H](C)c2cc(C#N)ccc2F)c1Cl [Compound I-18, (S)-24-(4-(((2-amino-4-hydroxypteridin-6-yl)methyl)amino)benzamido)-1-(1-(5-((5-(7-chloro-8-((I-1-(5-cyano-2-fluorophenyl)ethyl)amino)-3-fluoro-6-methyl-1,5-naphthyridin-2-yl)pyrimidin-2-yl)oxy)pentyl)-1H-1,2,3-triazol-4-yl)-21-oxo-2,5,8,11,14,17-hexaoxa-20-azapentacosan-25-oic acid] | ++ | +++ | +++ |
| 0.2 | < 1000 | complex formation observed | Cc1nc2cc(F)c(-c3cnc(OCCCCCn4cc(COCCOCCOCCOCCOCCOCCOCCOCCOCCOCCNC(=O)CC[C@H](NC(=O)c5ccc(NCc6cnc7nc(N)nc(O)c7n6)cc5)C(=O)O)nn4)nc3)nc2c(N[C@H](C)c2cc(C#N)ccc2F)c1Cl [Compound I-20, (S)-36-(4-(((2-amino-4-hydroxypteridin-6-yl)methyl)amino)benzamido)-1-(1-(5-((5-(7-chloro-8-(((R)-1-(5-cyano-2-fluorophenyl)ethyl)amino)-3-fluoro-6-methyl-1,5-naphthyridin-2-yl)pyrimidin-2-yl)oxy)pentyl)-1H-1,2,3-triazol-4-yl)-33-oxo-2,5,8,11,14,17,20,23,26,29-decaoxa-32-azaheptatriacontan-37-oic acid] | + | ++ | +++ |
